The subject of experiment [1] is NCI-H358 cells (K-Ras G12C). Kind of experiment: Potency assay: pERK in NCI-H358 cells. Conditions: Homo sapiens, NCI-H358; H358 KRAS G12C; read-out: pERK EC50. Format: cell-based, human. Summed up: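 Inhibition of cellular pERK after a 4 h treatment, detected by AlphaLISA or In-Cell Western. IC50 from a four-parameter concentration-response fit.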
In another experiment the target is KRAS G12S (Homo sapiens (Human), UniProt P01116+P62937, G12S). Kind of experiment: Ras-Raf (BRAF RBD) disruption / FRET / MOA assay, KRAS G12S. Conditions: Ras-Raf disruption/FRET/MOA assay; class symbols; read-out: KRAS G12S FRET data IC50. The class given is biochemical. Summed up:
(§1)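 Compounds, top final concentration 30 μM in 10-point 3-fold series, incubated 3 hours at 25° C with nucleotide-loaded Ras, cyclophilin A and BRAF RBD.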

The target in another experiment is KRAS G12D (Homo sapiens (Human), UniProt P01116+P62937, G12D). In words: Ras-Raf (BRAF RBD) disruption / FRET / MOA assay, KRAS G12D. The class given is biochemical. Particulars: Ras-Raf disruption/FRET/MOA assay; class symbols; read-out: KRAS G12D FRET data IC50. The essentials:
as §1

In another experiment the target is NRAS Q61K (Homo sapiens (Human), UniProt P01111+P62937, Q61K). In words: Ras-Raf (BRAF RBD) disruption / FRET / MOA assay, NRAS Q61K. Format: biochemical. Particulars: NRAS Q61K; Ras-Raf disruption/FRET/MOA assay; read-out: IC50* NRAS Q61K FRET data. The essentials:
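TR-FRET disruption of nucleotide-loaded Ras binding to BRAF RBD via compound-driven ternary complex with cyclophilin A. Compound as 10-point 3-fold series from 30 μM final, 3 h at 25° C, then anti-His Eu-W1024 (10 nM) and anti-GST allophycocyanin (50 nM) for 1.5 h. IC50 from decreased FRET ratio versus DMSO.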

These results are taken from patent US11566007B2, “Ras inhibitors” (Revolution Medicines, Inc., priority 2019, dated 2023).

KRAS G12D, sequence (P01116-2 other isoform, or with tags, fused parts or gaps G12D): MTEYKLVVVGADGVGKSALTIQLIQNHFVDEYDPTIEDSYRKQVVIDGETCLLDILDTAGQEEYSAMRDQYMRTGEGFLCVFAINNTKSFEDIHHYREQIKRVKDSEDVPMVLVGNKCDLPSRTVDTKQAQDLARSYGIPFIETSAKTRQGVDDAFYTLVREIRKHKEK
KRAS G12D, sequence (P62937 whole entry): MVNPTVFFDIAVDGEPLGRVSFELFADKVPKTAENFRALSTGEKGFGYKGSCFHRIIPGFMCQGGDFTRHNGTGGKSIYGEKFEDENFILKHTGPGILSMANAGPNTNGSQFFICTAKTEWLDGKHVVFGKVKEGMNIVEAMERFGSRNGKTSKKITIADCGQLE
KRAS G12S, sequence (P01116-2 other isoform, or with tags, fused parts or gaps G12S): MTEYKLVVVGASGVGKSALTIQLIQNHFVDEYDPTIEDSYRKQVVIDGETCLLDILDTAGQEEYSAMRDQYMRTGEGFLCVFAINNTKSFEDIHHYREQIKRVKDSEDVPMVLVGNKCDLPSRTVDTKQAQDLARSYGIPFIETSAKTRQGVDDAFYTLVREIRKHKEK
KRAS G12S, sequence (P62937 whole entry): as the sequence (P62937 whole entry) above
NRAS Q61K, sequence (P01111 whole entry Q61K): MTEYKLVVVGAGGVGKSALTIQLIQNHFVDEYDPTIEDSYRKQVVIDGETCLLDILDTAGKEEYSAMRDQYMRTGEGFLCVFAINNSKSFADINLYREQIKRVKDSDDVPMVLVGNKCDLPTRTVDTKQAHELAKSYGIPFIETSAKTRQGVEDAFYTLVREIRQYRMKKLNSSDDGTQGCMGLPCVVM
NRAS Q61K, sequence (P62937 whole entry): as the sequence (P62937 whole entry) above

Usually EC50 stands for the concentration needed to bring the measured effect to its halfway point. In general, IC50 refers to the concentration at which inhibition is half-maximal. For the molecule `CCn1c(-c2cccnc2[C@H](C)OC)c2c3cc(ccc31)-c1cccc(c1)C[C@H](NC(=O)[C@H](C(C)C)N1CO[C@@]3(CCN(C(=O)/C=C/CN(C)C)C3)C1=O)C(=O)N1CCC[C@H](N1)C(=O)OCC(C)(C)C2` (atropisomer, axis not shown) [Example A558], the EC50 in experiment [1] was less than 5000 nM. Also, the IC50 was in the range of 100 to 1000 nM on KRAS G12S, 1000 to 10000 nM on KRAS G12D and 1000 to 10000 nM at NRAS Q61K.
As to `CO[C@@H](COC1CN(C(=O)C#CC(C)(C)N(C)C)C1)C(=O)N[C@H]1Cc2coc(n2)-c2ccc3c(c2)c(c(-c2cccnc2[C@H](C)OC)n3CC(F)(F)F)CC(C)(C)COC(=O)[C@@H]2CCCN(N2)C1=O` (atropisomer, axis not shown) [Example A579], the EC50 in experiment [1] is less than 5000 nM. Further, the IC50 at KRAS G12S is 1000 to 10000 nM; on KRAS G12D it was greater than 10000 nM; at NRAS Q61K, greater than 10000 nM.
With `C=CC(=O)N1CCO[C@H]2CCN(C(=O)N(C)[C@H](C(=O)N[C@H]3Cc4nc(cs4)-c4ccc5c(c4)c(c(-c4cccnc4[C@H](C)OC)n5CC)CC(C)(C)COC(=O)[C@@H]4CCCN(N4)C3=O)C(C)C)C[C@H]21` (atropisomer, axis not shown) [Example A580], the EC50 in experiment [1] is less than 5000 nM. Besides, the IC50 lay in the range of 100 to 1000 nM on KRAS G12S, 1000 to 10000 nM at KRAS G12D and 10 to 100 nM at NRAS Q61K.
The corresponding values for `C=CC(=O)NCCN1CCN(C(=O)N(C)[C@H](C(=O)N[C@H]2Cc3nc(cs3)-c3ccc4c(c3)c(c(-c3cccnc3[C@H](C)OC)n4CC)CC(C)(C)COC(=O)[C@@H]3CCCN(N3)C2=O)C(C)C)CC1` (atropisomer, axis not shown) [Example A582] are less than 5000 nM, 100 to 1000 nM, 1000 to 10000 nM and 10 to 100 nM.
In the same order, the values of `CCn1c(-c2cccnc2[C@H](C)OC)c2c3cc(ccc31)-c1cccc(c1)C[C@H](NC(=O)[C@@H](CO[C@@H]1CCN(C(=O)C#CC(C)(C)N(C)C)C1)C(C)C)C(=O)N1CCC[C@H](N1)C(=O)OCC(C)(C)C2` (atropisomer, axis not shown) [Example A584] are less than 5000 nM, greater than 10000 nM, greater than 10000 nM and greater than 10000 nM.
In the same order, the values of `CCn1c(-c2cccnc2[C@H](C)OC)c2c3cc(ccc31)-c1cc(CF)cc(c1)C[C@H](NC(=O)[C@@H](COC1CN(C(=O)C#CC(C)(C)N(C)C)C1)C(C)C)C(=O)N1CCC[C@H](N1)C(=O)OCC(C)(C)C2` (atropisomer, axis not shown) [Example A587] are less than 5000 nM, greater than 10000 nM, greater than 10000 nM and greater than 10000 nM.
In the case of `CO[C@@H](C)c1ncccc1-c1c2c3cc(ccc3n1CC(F)(F)F)-c1cc(CF)cc(c1)C[C@H](NC(=O)[C@@H](COC1CN(C(=O)C#CC(C)(C)N(C)C)C1)C(C)C)C(=O)N1CCC[C@H](N1)C(=O)OCC(C)(C)C2` (atropisomer, axis not shown) [Example A589], the EC50 in experiment [1] was less than 5000 nM. The IC50 on KRAS G12S, at KRAS G12D and at NRAS Q61K was greater than 10000 nM in each case.
For the molecule `CO[C@@H](C)c1ncccc1-c1c2c3cc(ccc3n1CC(F)(F)F)-c1nc(ns1)C[C@H](NC(=O)[C@@H](COC1CN(C(=O)C#CC(C)(C)N(C)C)C1)C(C)C)C(=O)N1CCC[C@H](N1)C(=O)OCC(C)(C)C2` (atropisomer, axis not shown) [Example A590, (2R)-2-(((1-(4-(dimethylamino)-4-methylpent-2-ynoyl)azetidin-3-yl)oxy)methyl)-N-((6^3S,4S,Z)-1^2-(2-((S)-1-methoxyethyl)pyridin-3-yl)-10,10-dimethyl-5,7-dioxo-1^1-(2,2,2-trifluoroethyl)-6^1,6^2,6^3,6^4,6^5,6^6-hexahydro-1^1H-8-oxa-2(5,3)-thiadiazola-1(5,3)-indola-6(1,3)-pyridazinacycloundecaphane-4-yl)-3-methylbutanamide], the EC50 in experiment [1] was less than 5000 nM. The half-maximal inhibitory concentration (IC50) at KRAS G12S was 1000 to 10000 nM; at KRAS G12D, greater than 10000 nM; on NRAS Q61K, 1000 to 10000 nM.
Take `C=CC(=O)N1CCO[C@@]2(CCN(C(=O)N(C)[C@H](C(=O)N[C@H]3Cc4nc(cs4)-c4ccc5c(c4)c(c(-c4cccnc4[C@H](C)OC)n5CC(F)(F)F)CC(C)(C)COC(=O)[C@@H]4CCCN(N4)C3=O)C(C)C)C2)C1` (atropisomer, axis not shown) [Example A594]: the EC50 in experiment [1] was less than 5000 nM. Further, the IC50 at KRAS G12S is 100 to 1000 nM; on KRAS G12D, 100 to 1000 nM; at NRAS Q61K, 10 to 100 nM.
On to `C=CC(=O)N1CCO[C@H]2CN(C(=O)N(C)[C@H](C(=O)N[C@H]3Cc4cccc(n4)-c4ccc5c(c4)c(c(-c4cccnc4[C@H](C)OC)n5CC(F)(F)F)CC(C)(C)COC(=O)[C@@H]4CCCN(N4)C3=O)C(C)C)C[C@H]21` (atropisomer, axis not shown) [Example A595], for which the EC50 in experiment [1] was less than 5000 nM. The IC50 on KRAS G12S lay within 1000 to 10000 nM; on KRAS G12D, 1000 to 10000 nM; on NRAS Q61K, 100 to 1000 nM.
Regarding `C=CC(=O)N1CCO[C@H]2CN(C(=O)N(C)[C@H](C(=O)N[C@H]3Cc4cccc(n4)-c4ccc5c(c4)c(c(-c4cccnc4[C@H](C)OC)n5CC)CC(C)(C)COC(=O)[C@@H]4CCCN(N4)C3=O)C(C)C)C[C@H]21` (atropisomer, axis not shown) [Example A597], in experiment [1], the EC50 is less than 5000 nM. Besides, the IC50 at KRAS G12S was 1000 to 10000 nM; on KRAS G12D, greater than 10000 nM; at NRAS Q61K, 100 to 1000 nM.
`C=CC(=O)N1CCO[C@H]2CN(C(=O)N(C)[C@H](C(=O)N[C@H]3Cc4cccc(c4)-c4ccc5c(c4)c(c(-c4cccnc4[C@H](C)OC)n5CC)CC(C)(C)COC(=O)[C@@H]4CCCN(N4)C3=O)C(C)C)C[C@H]21` (atropisomer, axis not shown) [Example A610]: the EC50 in experiment [1] was less than 5000 nM. Also, the concentration for half-maximal inhibition (IC50) on KRAS G12S fell in the range of 1000 to 10000 nM; at KRAS G12D it was 1000 to 10000 nM; on NRAS Q61K, 100 to 1000 nM.
With `C=CC(=O)N1CC2(CCN2C(=O)N(C)[C@H](C(=O)N[C@H]2Cc3nc(n(C)n3)-c3ccc4c(c3)c(c(-c3cccnc3[C@H](C)OC)n4CC)CC(C)(C)COC(=O)[C@@H]3CCCN(N3)C2=O)C(C)C)C1` (atropisomer, axis not shown) [Example A612], the EC50 in experiment [1] was less than 5000 nM. In addition, the IC50 is 100 to 1000 nM at KRAS G12S, 100 to 1000 nM at KRAS G12D and 10 to 100 nM on NRAS Q61K.
As to `CCn1c(-c2cccnc2[C@H](C)OC)c2c3cc(ccc31)N1CCC[C@@H](C[C@H](NC(=O)[C@H](C(C)C)N(C)C(=O)C3(F)CCN(C(=O)C#CC(C)(C)N(C)C)CC3)C(=O)N3CCC[C@H](N3)C(=O)OCC(C)(C)C2)C1` (atropisomer, axis not shown) [Example A615], the EC50 in experiment [1] is less than 5000 nM. The IC50 at KRAS G12S, on KRAS G12D and on NRAS Q61K was greater than 10000 nM in each case.
On to `C=CC(=O)N(C)CCC1CCN(C(=O)N(C)[C@H](C(=O)N[C@H]2Cc3nc(cs3)-c3ccc4c(c3)c(c(-c3cccnc3[C@H](C)OC)n4CC)CC(C)(C)COC(=O)[C@@H]3CCCN(N3)C2=O)C(C)C)CC1` (atropisomer, axis not shown) [Example A621], for which, in experiment [1], the EC50 was less than 5000 nM. For the same molecule, the IC50 was in the range of 10 to 100 nM at KRAS G12S, 100 to 1000 nM on KRAS G12D and 10 to 100 nM at NRAS Q61K.
Turning to `CCn1c(-c2cccnc2[C@H](C)OC)c2c3cc(ccc31)-c1csc(n1)C[C@H](NC(=O)[C@H](C(C)C)N(C)C(=O)N1C[C@H]3CN(C(=O)C#CC(C)(C)N(C)C)CC[C@H]31)C(=O)N1CCC[C@H](N1)C(=O)OCC(C)(C)C2` (atropisomer, axis not shown) [Example A624], the half-maximal effective concentration (EC50) in experiment [1] was less than 5000 nM. In addition, the IC50 on KRAS G12S was 100 to 1000 nM; on KRAS G12D it was 1000 to 10000 nM; on NRAS Q61K, 100 to 1000 nM.
As for `CCn1c(-c2cccnc2[C@H](C)OC)c2c3cc(ccc31)-c1csc(n1)C[C@H](NC(=O)[C@H](F)COC1CN(C(=O)C#CC(C)(C)N(C)C)C1)C(=O)N1CCC[C@H](N1)C(=O)OCC(C)(C)C2` (atropisomer, axis not shown) [Example A627], in experiment [1], the EC50 was less than 5000 nM. Further, the IC50 on KRAS G12S, at KRAS G12D and at NRAS Q61K was greater than 10000 nM in each case.
For `C=C(C)C(=O)N1CC2(CCN(C(=O)N(C)[C@H](C(=O)N[C@H]3Cc4nc(cs4)-c4ccc5c(c4)c(c(-c4cccnc4[C@H](C)OC)n5CC)CC(C)(C)COC(=O)[C@@H]4CCCN(N4)C3=O)C(C)C)CC2)C1` (atropisomer, axis not shown) [Example A651], the EC50 in experiment [1] was less than 5000 nM. The figures for the IC50 at KRAS G12S, at KRAS G12D and on NRAS Q61K were 100 to 1000 nM, 100 to 1000 nM and 10 to 100 nM, respectively.
As to `C=CC(=O)N(C)C[C@H]1CCN(C(=O)N(C)[C@H](C(=O)N[C@H]2Cc3nc(cs3)-c3ccc4c(c3)c(c(-c3cccnc3[C@H](C)OC)n4CC)CC(C)(C)COC(=O)[C@@H]3CCCN(N3)C2=O)C(C)C)C1` (atropisomer, axis not shown) [Example A653], the EC50 in experiment [1] is less than 5000 nM. The half-maximal inhibitory concentration (IC50) at KRAS G12S fell in the range of 100 to 1000 nM; on KRAS G12D, 100 to 1000 nM; at NRAS Q61K, 10 to 100 nM.
